Legend:
[1] = test system: Acute Liver Damage associated with Centrilobular Necrosis (carbon tetrachloride); experiment: Protective effect on acute liver damage associated with centrilobular necrosis (carbon tetrachloride model); assay type: in vivo, mice (four-week-old male, dd strain); details: 250 mg/kg oral 6 h before CCl4, average of 5 to 6 mice; for p-GPT (plasma glutamic-pyruvic transaminase activity): 24 h after CCl4, values over 1,000 regarded as 1,000; for Liver Damage Index: 0 normal, 2 slightly recognized, 4 clearly observable damage, 6 heavy damage
Source text: Carbon tetrachloride (CCl4) administration induces centrilobular necrosis of the liver associated with loss of diphosphopyridine nucleotide, hepatic glycogen, coenzyme A and increase in neutral fat. Release of several enzymes from the hepatocytes, and increases of enzyme activities in the plasma are recognized as the result of the damage of the liver. A suitable means for evaluating the degree of damage induced by CCl4 or the degree of protection afforded by drugs is to study the plasma glutamic-pyruvic transaminase (p-GPT) activity.
Method: The test compounds were dissolved or suspended in olive oil and administered orally at the dose of 250 mg/kg to the mice (Four-week-old male mice-dd strain). After 6 hours, CCl4 was administered orally (0.05 ml/kg as olive oil solution). Animals were killed 24 hours after CCl4 administration, and the liver was grossly observed. The plasma was obtained by centrifugation. Activities of p-GPT were determined by the method of Reitman and Frankel and expressed in Karmen units.
Score for liver damage was as follows: […]
4 Clearly observable damage
Each figure indicates average of 5 to 6 mice. Values of p-GPT over 1,000 Karmen unit regarded as 1,000 for calculation of average for convenience.

[2] = test system: fatty liver (carbon tetrachloride); experiment: Therapeutic effect on fatty liver (carbon tetrachloride model); assay type: in vivo, male rat (35 week-old, SD strain); details: 10 days, one symbol per animal
Method: Carbon tetrachloride also induces fatty liver, but the picture of disease differs from the case of ethionine-induced fatty liver. Carbon tetrachloride is generally considered to damage microsome and thereby to inhibit protein synthesis and induce fatty liver.
Carbon tetrachloride was subscutaneously administered to 35 week-old male rat (SD strain) for 4 days at the dose of 1 ml/kg. The treated animals were left for 3 days after the last administration to maximize the manifestation of fatty liver.
Administration of the compounds of this invention was commenced on the fourth day after the administration of carbon tetrachloride was completed. It was orally given everyday for 10 days at the dose of 50 or 250 mg/kg. On the 11th day, the animals were sacrificed. The therapeutic effect was evaluated by determining the content of lipid in the liver (triglyceride and total lipid) and examining the histopathological changes. Triglyceride and total lipid were determined colorimetrically by chromotropic acid method and Bragdon's oxidation method, respectively.
Indices for the histopathological change is as follows.

[3] = Effect on glucose metabolism (blood sugar after glucose load); assay type: in vivo, mice; details: for Blood Sugar: 250 mg/kg oral 6 h before glucose 4.0 g/kg
Method: The test compounds dissolved in olive oil and administered orally at the dose of 250 mg/kg to the mice. After 6 hours, 4.0 g/kg of glucose was orally administered. The same amount of glucose was given to the control animals. 0.02 ml of blood was taken from caudal vein of the mice at 30, 60, 90 and 120 min. after glucose administration. Blood sugar was measured by the procedure of Somogyi-Nelson. Number of animals used was 5 to 6 mice for each treatment.

SMILES	p-GPT (plasma glutamic-pyruvic transaminase activity) [1] [Karmen units]	Liver Damage Index [1]	further results
COC(=O)C(C(=O)OC)=C1SCCS1 [Compound 1]	200	2.2	–
CCCOC(=O)C(C(=O)OCCC)=C1SCCS1 [Compound 3, Di-n-propyl 1,3-dithiolan-2-ylidene malonate]	26	1.0	–
CCCCOC(=O)C(C(=O)OCCCC)=C1SCCS1 [Compound 5]	322	3.0	–
CC(C)COC(=O)C(C(=O)OCC(C)C)=C1SCCS1 [Compound 6]	26	0.5	Degree of fatty liver (histopathological examination) ([2]; 50 mg/kg oral): ± ± and ± ± + ±; Degree of fatty liver (histopathological examination) ([2]; 250 mg/kg oral): ± - - - ± ±
CCC(C)OC(=O)C(C(=O)OC(C)CC)=C1SCCS1 (centres unmarked) [Compound 7]	102	1.2	–
CC(C)(C)OC(=O)C(C(=O)OC(C)(C)C)=C1SCCS1 [Compound 8]	230	1.2	–
CCCCCOC(=O)C(C(=O)OCCCCC)=C1SCCS1 [Compound 9]	550	3.2	–
CC(C)CCOC(=O)C(C(=O)OCCC(C)C)=C1SCCS1 [Compound 10]	350	3.3	–
CSC(=O)C(C(=O)SC)=C1SCCS1 [Compound 11]	750	2.5	–
CCSC(=O)C(C(=O)SCC)=C1SCCS1 [Compound 12]	36	1.0	Blood Sugar (percent of 0 min value) ([3]; 0 min): 100%; Blood Sugar ([3]; 0 min): 141 ± 11.3 mg/dL; Blood Sugar ([3]; 30 min): 264 ± 21.5 mg/dL; Blood Sugar ([3]; 60 min): 225 ± 17.2 mg/dL; Blood Sugar ([3]; 90 min): 167 ± 15.6 mg/dL; Blood Sugar ([3]; 120 min): 142 ± 13.2 mg/dL; Blood Sugar (percent of 0 min value) ([3]; 30 min): 187%; Blood Sugar (percent of 0 min value) ([3]; 60 min): 160%; Blood Sugar (percent of 0 min value) ([3]; 90 min): 118%; Blood Sugar (percent of 0 min value) ([3]; 120 min): 100%
CC(C)SC(=O)C(C(=O)SC(C)C)=C1SCCS1 [Compound 13]	105	1.4	Degree of fatty liver (histopathological examination) ([2]; 50 mg/kg oral): ± ± and ± ± ± + ±; Degree of fatty liver (histopathological examination) ([2]; 250 mg/kg oral): - ± and - ± ± ±
CCCCSC(=O)C(C(=O)SCCCC)=C1SCCS1 [Compound 14]	241	1.4	–
COCCOC(=O)C(C(=O)OCCOC)=C1SCCS1 [Compound 15, di(methoxyethyl) 1,3-dithiolan-2-ylidene malonate]	85	1.5	–
CCOCCOC(=O)C(C(=O)OCCOCC)=C1SCCS1 [Compound 16]	150	1.0	–
CCCCOCCOC(=O)C(C(=O)OCCOCCCC)=C1SCCS1 [Compound 17]	242	3.0	–

Reference: patent US4080467A, “Pharmaceutical compositions comprising 1,3-dithiolan-2-ylidene malonate derivatives” (Nihon Nohyaku Co., Ltd., priority 1976, dated 1978)
